Assay results: patent publication US20260055114A1, “IMIDAZO[1,2-B]PYRIDAZINE INHIBITORS OF CYCLIN-DEPENDENT KINASES” (H. LEE MOFFITT CANCER CENTER AND RESEARCH INSTITUTE, INC., priority 2022, published 2026)

Key:
CDK12 = CDK12 (Homo sapiens, UniProt Q9NYV4); experiment: Inhibition of cyclin-dependent kinase 12 (% enzyme activity at 1 uM and IC50); format: biochemical; details: for remaining activity at 1 µM: 1 uM compound
CCNK = CCNK degradation (DC50, Dmax); format: cell-based; details: for Dmax (%): CCNK degradation
MDA-MB-231 cell line = experiment: Antiproliferative activity, MDA-MB-231 cell line (GI50); format: cell-based; details: Homo sapiens

Sequence of CDK12 (Q9NYV4 whole entry): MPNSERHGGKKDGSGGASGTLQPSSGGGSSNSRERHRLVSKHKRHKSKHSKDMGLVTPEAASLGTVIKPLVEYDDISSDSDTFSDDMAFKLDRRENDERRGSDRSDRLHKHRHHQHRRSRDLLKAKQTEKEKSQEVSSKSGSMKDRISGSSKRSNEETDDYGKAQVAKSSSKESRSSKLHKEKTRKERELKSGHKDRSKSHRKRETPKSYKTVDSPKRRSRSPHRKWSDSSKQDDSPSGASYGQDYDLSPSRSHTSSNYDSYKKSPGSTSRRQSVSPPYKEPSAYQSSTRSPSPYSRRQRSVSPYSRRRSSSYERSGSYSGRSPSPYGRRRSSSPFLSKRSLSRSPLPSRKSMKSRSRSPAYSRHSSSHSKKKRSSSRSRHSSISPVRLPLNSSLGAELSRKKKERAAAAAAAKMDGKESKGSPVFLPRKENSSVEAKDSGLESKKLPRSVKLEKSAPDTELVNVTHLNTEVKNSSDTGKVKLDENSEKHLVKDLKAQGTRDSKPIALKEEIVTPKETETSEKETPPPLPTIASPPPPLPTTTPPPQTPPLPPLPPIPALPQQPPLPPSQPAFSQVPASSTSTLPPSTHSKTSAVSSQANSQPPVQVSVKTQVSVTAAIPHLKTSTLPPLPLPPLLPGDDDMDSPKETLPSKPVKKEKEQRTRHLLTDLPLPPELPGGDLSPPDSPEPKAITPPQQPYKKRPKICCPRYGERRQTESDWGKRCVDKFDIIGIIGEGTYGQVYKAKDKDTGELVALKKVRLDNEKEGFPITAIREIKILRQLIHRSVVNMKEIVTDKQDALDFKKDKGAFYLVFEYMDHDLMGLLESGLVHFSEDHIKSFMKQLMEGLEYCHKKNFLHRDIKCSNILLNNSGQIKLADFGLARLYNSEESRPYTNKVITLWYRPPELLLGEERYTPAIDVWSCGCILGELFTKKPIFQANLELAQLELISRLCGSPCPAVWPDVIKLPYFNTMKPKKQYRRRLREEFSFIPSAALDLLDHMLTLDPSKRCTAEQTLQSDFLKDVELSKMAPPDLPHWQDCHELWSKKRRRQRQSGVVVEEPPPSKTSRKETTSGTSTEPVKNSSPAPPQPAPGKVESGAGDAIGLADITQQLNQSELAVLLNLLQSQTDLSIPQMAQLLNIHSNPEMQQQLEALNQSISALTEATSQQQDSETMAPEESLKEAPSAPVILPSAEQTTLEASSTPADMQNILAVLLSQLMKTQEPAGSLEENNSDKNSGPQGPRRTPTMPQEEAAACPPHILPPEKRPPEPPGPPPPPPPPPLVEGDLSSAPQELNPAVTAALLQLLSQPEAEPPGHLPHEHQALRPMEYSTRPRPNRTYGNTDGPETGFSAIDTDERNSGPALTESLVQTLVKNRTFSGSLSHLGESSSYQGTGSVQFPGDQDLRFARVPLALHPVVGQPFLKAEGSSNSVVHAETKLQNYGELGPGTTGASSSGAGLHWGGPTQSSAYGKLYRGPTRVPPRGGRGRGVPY
Sequence of CDK12 (O75909 whole entry partner): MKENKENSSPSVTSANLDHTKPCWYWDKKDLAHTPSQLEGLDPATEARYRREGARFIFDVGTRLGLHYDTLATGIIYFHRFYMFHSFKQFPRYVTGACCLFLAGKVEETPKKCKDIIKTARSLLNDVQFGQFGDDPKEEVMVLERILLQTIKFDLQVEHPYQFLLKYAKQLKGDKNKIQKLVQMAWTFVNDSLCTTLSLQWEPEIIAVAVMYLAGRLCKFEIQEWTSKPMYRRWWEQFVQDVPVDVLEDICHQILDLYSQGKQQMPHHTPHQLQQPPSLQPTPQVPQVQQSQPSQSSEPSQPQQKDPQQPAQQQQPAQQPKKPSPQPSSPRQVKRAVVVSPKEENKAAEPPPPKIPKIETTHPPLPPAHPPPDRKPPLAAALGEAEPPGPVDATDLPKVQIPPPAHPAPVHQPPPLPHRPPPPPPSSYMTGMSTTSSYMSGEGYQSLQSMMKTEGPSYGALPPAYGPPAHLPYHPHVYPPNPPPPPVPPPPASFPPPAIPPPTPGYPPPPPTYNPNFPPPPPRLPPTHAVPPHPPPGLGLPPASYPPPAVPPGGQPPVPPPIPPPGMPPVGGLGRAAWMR

| SMILES | IC50 (CDK12) [nM] | remaining activity at 1 µM (CDK12) [%] | DC50 (CCNK) [nM] | Dmax (%) (CCNK) | GI50 (MDA-MB-231 cell line) [nM] |
| --- | --- | --- | --- | --- | --- |
| Cc1cc(-c2cnc3c(NCc4nc5c(F)cccc5[nH]4)cc(N4CCN(C)CC4)nn23)cs1 [Cmpd 93, N-((4-fluoro-1H-benzo[d]imidazol-2-yl)methyl)-6-(4-methylpiperazin-1-yl)-3-(5-methylthiophen-3-yl) imidazo[1,2-b]pyridazin-8-amine] | 1220 | 36 | 80 | 80 | 1250 |
| CN1CCN(c2cc(NCc3nc4c(F)c(F)ccc4[nH]3)c3ncc(-c4cnn(C)c4)n3n2)CC1 [Cmpd 5, N-((4,5-difluoro-1H-benzo[d]imidazol-2-yl)methyl)-3-(1-methyl-1H-pyrazol-4-yl)-6-(4-methylpiperazin-1-yl) imidazo[1,2-b]pyridazin-8-amine] | 3000 |  | 1300 | 65 | 4280 |
| Cc1cc(-c2cnc3c(NCc4nc5c(C)ccnc5[nH]4)cc(N4CCOCC4)nn23)cs1 [Cmpd 91, N-((7-methyl-3H-imidazo[4,5-b]pyridin-2-yl)methyl)-3-(5-methylthiophen-3-yl)-6-morpholinoimidazo[1,2-b]pyridazin-8-amine] |  | 103 | 10000 |  | 3940 |
| CC1(C)CN(c2cc(NCc3nc4cc(Cl)c(Cl)cc4[nH]3)c3ncc(-c4cnn(C(F)F)c4)n3n2)CCO1 [Cmpd 48, N-((5,6-dichloro-1H-benzo[d]imidazol-2-yl)methyl)-3-(1-(difluoromethyl)-1H-pyrazol-4-yl)-6-(2,2-dimethylmorpholino) imidazo[1,2-b]pyridazin-8-amine] | 2440 |  | 200 | 100 | 130 |
| CC(C)n1cc(-c2cnc3c(NCc4nc5cc(Cl)c(Cl)cc5[nH]4)cc(N4CCOCC4)nn23)cn1 [Cmpd 15, N-((5,6-dichloro-1H-benzo[d]imidazol-2-yl)methyl)-3-(1-isopropyl-1H-pyrazol-4-yl)-6-morpholinoimidazo[1,2-b]pyridazin-8-amine] | 3000 | 68 | 2100 | 65 | 4110 |
| CN1CCN(c2cc(NCc3nc4c(F)c(F)ccc4[nH]3)c3ncc(-c4csc(C#N)c4)n3n2)CC1 [Cmpd 82, 4-(8-(((4,5-difluoro-1H-benzo[d]imidazol-2-yl)methyl)amino)-6-(4-methylpiperazin-1-yl)imidazo[1,2-b]pyridazin-3-yl)thiophene-2-carbonitrile] | 405 | 30 | 250 | 50 | 1120 |
| Fc1cccc2[nH]c(CNc3cc(N4CCOCC4)nn4c(-c5cnn(C(F)F)c5)cnc34)nc12 [Cmpd 52, 3-(1-(difluoromethyl)-1H-pyrazol-4-yl)-N-((4-fluoro-1H-benzo[d]imidazol-2-yl)methyl)-6-morpholinoimidazo[1,2-b]pyridazin-8-amine] | 359 | 23 | 30 | 80 | 390 |
| Cc1cc(-c2cnc3c(NCc4nc5c(F)c(F)ccc5[nH]4)cc(N4CCOCC4)nn23)cs1 [Cmpd 97, N-((4,5-difluoro-1H-benzo[d]imidazol-2-yl)methyl)-3-(5-methylthiophen-3-yl)-6-morpholinoimidazo[1,2-b]pyridazin-8-amine] |  | 79 | 1300 | 75 | 10000 |
| Cn1cc(-c2cnc3c(NCc4nc5cc(Cl)c(Cl)cc5[nH]4)cc(N4CCOCC4)nn23)cn1 [Cmpd 9, N-((5,6-dichloro-1H-benzo[d]imidazol-2-yl)methyl)-3-(1-methyl-1H-pyrazol-4-yl)-6-morpholinoimidazo[1,2-b]pyridazin-8-amine] | 9560 |  | 680 | 95 | 564 |
| Cc1ccnc2[nH]c(CNc3cc(N4CCN(C)CC4)nn4c(-c5ccsc5)cnc34)nc12 [Cmpd 75, N-((7-methyl-3H-imidazo[4,5-b]pyridin-2-yl)methyl)-6-(4-methylpiperazin-1-yl)-3-(thiophen-3-yl) imidazo[1,2-b]pyridazin-8-amine] | 38 |  | 140 | 80 | 146 |
| CC(C)n1cc(-c2cnc3c(NCc4nc5cccc(Cl)c5[nH]4)cc(N4CCN(C)CC4)nn23)cn1 [Cmpd 17, N-((7-chloro-1H-benzo[d]imidazol-2-yl)methyl)-3-(1-isopropyl-1H-pyrazol-4-yl)-6-(4-methylpiperazin-1-yl) imidazo[1,2-b]pyridazin-8-amine] | 919 | 45 | 10000 |  | 5600 |
| CC(C)n1cc(-c2cnc3c(NCc4nc5cc(Cl)c(Cl)cc5[nH]4)cc(N4CCN(C)CC4)nn23)cn1 [Cmpd 14, N-((5,6-dichloro-1H-benzo[d]imidazol-2-yl)methyl)-3-(1-isopropyl-1H-pyrazol-4-yl)-6-(4-methylpiperazin-1-yl) imidazo[1,2-b]pyridazin-8-amine] | 5000 | 84 | 10000 |  | 1770 |
| CC1(C)CN(c2cc(NCc3nc4cc(Cl)c(Cl)cc4[nH]3)c3ncc(-c4cnn(C(F)F)c4)n3n2)CCN1 [Cmpd 47, N-((5,6-dichloro-1H-benzo[d]imidazol-2-yl)methyl)-3-(1-(difluoromethyl)-1H-pyrazol-4-yl)-6-(3,3-dimethylpiperazin-1-yl) imidazo[1,2-b]pyridazin-8-amine] | 18 |  | 30 | 100 | 7 |
| Cn1cc(-c2cnc3c(NCc4nc5c(F)c(F)ccc5[nH]4)cc(N4CCOCC4)nn23)cn1 [Cmpd 6, N-((4,5-difluoro-1H-benzo[d]imidazol-2-yl)methyl)-3-(1-methyl-1H-pyrazol-4-yl)-6-morpholinoimidazo[1,2-b]pyridazin-8-amine] | 3000 |  | 460 | 75 | 3840 |
| FC(F)n1cc(-c2cnc3c(NCc4nc5cc(Cl)c(Cl)cc5[nH]4)cc(N4CCNCC4)nn23)cn1 [Cmpd 43, N-((5,6-dichloro-1H-benzo[d]imidazol-2-yl)methyl)-3-(1-(difluoromethyl)-1H-pyrazol-4-yl)-6-(piperazin-1-yl) imidazo[1,2-b]pyridazin-8-amine] | 292 |  | 150 | 100 | 49 |
| CN1CCN(c2cc(NCc3nc4c(F)cccc4[nH]3)c3ncc(-c4cnn(C(F)F)c4)n3n2)CC1 [Cmpd 51, 3-(1-(difluoromethyl)-1H-pyrazol-4-yl)-N-((4-fluoro-1H-benzo[d]imidazol-2-yl)methyl)-6-(4-methylpiperazin-1-yl) imidazo[1,2-b]pyridazin-8-amine] |  | 55 | 1900 | 50 | 5130 |
| CC(C)n1cc(-c2cnc3c(NCc4nc5c(F)cccc5[nH]4)cc(N4CCN(C)CC4)nn23)cn1 [Cmpd 26, N-((4-fluoro-1H-benzo[d]imidazol-2-yl)methyl)-3-(1-isopropyl-1H-pyrazol-4-yl)-6-(4-methylpiperazin-1-yl) imidazo[1,2-b]pyridazin-8-amine] | 1110 | 53 | 10000 |  | 6070 |
| Cc1ccnc2[nH]c(CNc3cc(N4CCN(C)CC4)nn4c(-c5cnn(C)c5)cnc34)nc12 [Cmpd 11, 3-(1-methyl-1H-pyrazol-4-yl)-N-((7-methyl-3H-imidazo[4,5-b]pyridin-2-yl)methyl)-6-(4-methylpiperazin-1-yl) imidazo[1,2-b]pyridazin-8-amine] | 1000 |  | 5600 | 60 | 7930 |
| CN1CCN(c2cc(NCc3nc4c(F)c(F)ccc4[nH]3)c3ncc(-c4ccsc4)n3n2)CC1 [Cmpd 78, N-((4,5-difluoro-1H-benzo[d]imidazol-2-yl)methyl)-6-(4-methylpiperazin-1-yl)-3-(thiophen-3-yl) imidazo[1,2-b]pyridazin-8-amine] | 473 | 24 | 260 | 80 | 425 |
| Fc1ccc2[nH]c(CNc3cc(N4CCOCC4)nn4c(-c5cnn(C6CC6)c5)cnc34)nc2c1F [Cmpd 39, 3-(1-cyclopropyl-1H-pyrazol-4-yl)-N-((4,5-difluoro-1H-benzo[d]imidazol-2-yl)methyl)-6-morpholinoimidazo[1,2-b]pyridazin-8-amine] |  | 61 | 920 | 80 | 10000 |
| CN1CCN(c2cc(NCc3nc4c(F)cccc4[nH]3)c3ncc(-c4cnn(C5CC5)c4)n3n2)CC1 [Cmpd 35, 3-(1-cyclopropyl-1H-pyrazol-4-yl)-N-((4-fluoro-1H-benzo[d]imidazol-2-yl)methyl)-6-(4-methylpiperazin-1-yl) imidazo[1,2-b]pyridazin-8-amine] |  | 49 | 1300 | 80 | 5170 |
| FC(F)n1cc(-c2cnc3c(NCc4nc5cc(Cl)c(Cl)cc5[nH]4)cc(N4CCOCC4)nn23)cn1 [Cmpd 42, N-((5,6-dichloro-1H-benzo[d]imidazol-2-yl)methyl)-3-(1-(difluoromethyl)-1H-pyrazol-4-yl)-6-morpholinoimidazo[1,2-b]pyridazin-8-amine] | 36 |  | 180 | 100 | 127 |
| Cc1ccnc2[nH]c(CNc3cc(N4CCOCC4)nn4c(-c5ccsc5)cnc34)nc12 [Cmpd 76, N-((7-methyl-3H-imidazo[4,5-b]pyridin-2-yl)methyl)-6-morpholino-3-(thiophen-3-yl) imidazo[1,2-b]pyridazin-8-amine] | 7380 |  | 250 | 75 | 376 |
| Cc1cc(-c2cnc3c(NCc4nc5c(F)c(F)ccc5[nH]4)cc(N4CCN(C)CC4)nn23)cs1 [Cmpd 96, N-((4,5-difluoro-1H-benzo[d]imidazol-2-yl)methyl)-6-(4-methylpiperazin-1-yl)-3-(5-methylthiophen-3-yl) imidazo[1,2-b]pyridazin-8-amine] |  | 63 | 1800 | 75 | 3110 |
